Assays:
[1] = test system: MMP-1 (Matrix Metalloproteinase-1) production in SW1353 human chondrosarcoma cells; test: glucocorticoid inhibition of IL-1 induced MMP-1 production in human chondrosarcoma cells; assay type: cell-based; details: 20 ng/ml IL-1 beta, 72 hours after IL-1 addition, ELISA, read-out: IC50, inhibitor of MMP1 expression
Description: (§1) This assay, the glucocorticoid inhibition of IL-1 (Interleukin-1) induced MMP-1 (Matrix Metalloproteinase-1) and IL-8 (Interleukin-8) production in human chondrosarcoma cells, is conducted as follows: SW1353 human chondrosarcoma cells (obtained from ATCC) from passage 12 through passage 19 are used in a 96 well format assay. Cells are plated at confluence into 96 well plates in DMEM (Dulbecco's Modified Eagle Medium) with 10% fetal bovine serum and incubated at 37° C., 5% CO2. After 24 hours, serum containing media is removed and replaced with 200 ul/well DMEM containing 1 mg/L insulin, 2 g/L lactalbumin hydrosylate, and 0.5 mg/L ascorbic acid and returned to incubation at 37° C., 5% CO2. […] IL-8 production is assessed using the Quantikine human IL-8 ELISA kit from R&D Systems (D8050) on samples diluted 60-fold in RD5P Calibrator Diluent, following the manufacturer's protocol. The percent of the average IL-1 control is determined for the average of each of the triplicate samples following subtraction of the average signal from untreated cells. IC50's are determined from log linear plots of the percent of control versus the concentration of inhibitor. […] MMP-1 production is assessed via the Bio-Trak MMP-1 ELISA kit from Amersham (RPN2610) on 100 ul of neat sample following the manufacturer's protocol. […]

[2] = test system: IL-8 (Interleukin-8) production in SW1353 human chondrosarcoma cells; test: glucocorticoid inhibition of IL-1 induced IL-8 production in human chondrosarcoma cells; assay type: cell-based; details: 20 ng/ml IL-1 beta, 24 hours after addition of IL-1, ELISA, read-out: IC50, inhibitor of IL-8 expression
Description: as §1

## C[C@@H]1C[C@H]2[C@@H]3CCC4=CC(=O)C=C[C@]4(C)[C@@]3(F)[C@@H](O)C[C@]2(C)[C@@]1(O)C(=O)CO [Dexamethasone, (11β, 16α)-9-fluoro-11,17,21-trihydroxy-16-methylpregna-1,4-diene-3,20-dione]
[1]
  IC50: 5 nM
[2]
  IC50: 5 nM

Source: patent US20020107235A1, “Glucocorticoid receptor modulators” (priority 2000, published 2002)
